± gives the standard deviation of the averaged measurements.
Columns and labels:
VORINOSTAT = compound: O=C(CCCCCCC(=O)Nc1ccccc1)NO [VORINOSTAT]; experiment: surviving fraction relative to DMSO-only wells; higher = less growth inhibition; conditions: exposure time: 5 days
In short: (§1)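 Inhibitors were tested at 0.5, 1, 5, 10, 50, 100, 500 and 1000 nM, applied continuously for five days beginning 24 hours after log-phase tumour cells were seeded at 250–500 per well in 384-well plates. CellTiter-Glo luminescence served as the viability measure, expressed as surviving fraction against the median of DMSO-only wells. Each line, screened three times, was kept only with replicate Pearson r >0.7 and median Z' >0.3.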

NILOTINIB = compound: Cc1cn(-c2cc(NC(=O)c3ccc(C)c(Nc4nccc(-c5cccnc5)n4)c3)cc(C(F)(F)F)c2)cn1 [NILOTINIB]; experiment: as above; conditions: exposure time: 5 days
In short: as §1

Row | Test System | surviving fraction (VORINOSTAT; 0.5 nM) | surviving fraction (VORINOSTAT; 1 nM) | surviving fraction (VORINOSTAT; 5 nM) | surviving fraction (VORINOSTAT; 10 nM) | surviving fraction (VORINOSTAT; 50 nM) | surviving fraction (VORINOSTAT; 100 nM) | surviving fraction (VORINOSTAT; 500 nM) | surviving fraction (VORINOSTAT; 1000 nM) | surviving fraction (NILOTINIB; 0.5 nM) | surviving fraction (NILOTINIB; 1 nM) | surviving fraction (NILOTINIB; 5 nM) | surviving fraction (NILOTINIB; 10 nM) | surviving fraction (NILOTINIB; 50 nM) | surviving fraction (NILOTINIB; 100 nM) | surviving fraction (NILOTINIB; 500 nM) | surviving fraction (NILOTINIB; 1000 nM)
1 | HCC1395 BREAST | 1.1 ± 0.23 | 1.05 ± 0.16 | 1.31 ± 0.066 | 1.11 ± 0.11 | 1.25 ± 0.11 | 1.21 ± 0.042 | 1.03 ± 0.11 | 0.94 ± 0.1 | 1.01 ± 0.038 | 0.988 ± 0.097 | 1.2 ± 0.074 | 1.19 ± 0.023 | 1.03 ± 0.055 | 1.03 ± 0.16 | 0.854 ± 0.062 | 0.929 ± 0.14
2 | HCC1806 BREAST | 1.13 ± 0.16 | 0.721 ± 0.61 | 0.825 ± 0.54 | 0.77 ± 0.64 | 1.18 ± 0.051 | 1.24 ± 0.16 | 0.852 ± 0.073 | 0.527 ± 0.089 | 0.977 ± 0.016 | 0.97 ± 0.048 | 1.1 ± 0.14 | 1.02 ± 0.067 | 0.844 ± 0.088 | 0.755 ± 0.083 | 0.666 ± 0.044 | 0.781 ± 0.026
3 | HCC1954 BREAST | 0.802 ± 0.19 | 0.823 ± 0.26 | 1.07 ± 0.36 | 1.18 ± 0.13 | 1.345 ± 0.0064 | 1.37 ± 0.21 | 0.839 ± 0.022 | 0.42875 ± 0.00035 | 0.917 ± 0.15 | 0.891 ± 0.032 | 0.936 ± 0.059 | 0.969 ± 0.019 | 0.589 ± 0.0085 | 0.677 ± 0.12 | 0.8063 ± 0.0032 | 0.739 ± 0.077
4 | HCT15 LARGE INTESTINE | 0.9863 ± 0.0055 | 0.938 ± 0.023 | 0.963 ± 0.044 | 0.867 ± 0.067 | 1.05 ± 0.028 | 1.06 ± 0.03 | 0.98 ± 0.019 | 0.674 ± 0.056 | 1.05 ± 0.082 | 1.01 ± 0.071 | 1.07 ± 0.12 | 1.09 ± 0.12 | 1.09 ± 0.1 | 1.12 ± 0.037 | 1.05 ± 0.11 | 1.06 ± 0.091
5 | HELA CERVIX | 0.955 ± 0.049 | 0.942 ± 0.066 | 0.972 ± 0.042 | 0.939 ± 0.07 | 1.07 ± 0.057 | 1.06 ± 0.064 | 1.11 ± 0.037 | 1.01 ± 0.092 | 1.05 ± 0.016 | 1.03 ± 0.053 | 1.09 ± 0.034 | 1 ± 0.033 | 1.09 ± 0.079 | 1.06 ± 0.073 | 1.15 ± 0.074 | 1.091 ± 0.0094
6 | HOS BONE | 0.957 ± 0.017 | 1 ± 0.022 | 0.9643 ± 0.0076 | 0.989 ± 0.017 | 1.05 ± 0.019 | 1.07 ± 0.029 | 0.948 ± 0.034 | 0.967 ± 0.021 | 1.05 ± 0.024 | 1.014 ± 0.0049 | 1.05 ± 0.033 | 1.05 ± 0.025 | 1.065 ± 0.0095 | 1.04 ± 0.026 | 1.03 ± 0.025 | 1.02 ± 0.041
7 | HOSMNG BONE | 0.994 ± 0.12 | 0.94 ± 0.091 | 0.996 ± 0.17 | 1.06 ± 0.064 | 0.999 ± 0.048 | 1.09 ± 0.063 | 1.06 ± 0.023 | 1.09 ± 0.02 | 0.898 ± 0.073 | 0.97 ± 0.062 | 0.956 ± 0.044 | 0.937 ± 0.039 | 1.03 ± 0.03 | 0.957 ± 0.064 | 1.07 ± 0.029 | 1.22 ± 0.018
8 | HSSYII SYNOVIAL | 0.913 ± 0.023 | 0.87 ± 0.025 | 0.927 ± 0.044 | 0.873 ± 0.016 | 1.06 ± 0.25 | 0.858 ± 0.066 | 0.436 ± 0.012 | 0.201 ± 0.011 | 0.907 ± 0.018 | 1 ± 0.033 | 0.973 ± 0.015 | 0.987 ± 0.052 | 0.9 ± 0.061 | 0.954 ± 0.029 | 0.874 ± 0.029 | 0.785 ± 0.036
9 | HT1080 SOFT TISSUE | 1.02 ± 0.046 | 1.02 ± 0.015 | 1.05 ± 0.039 | 1.02 ± 0.034 | 0.951 ± 0.028 | 0.914 ± 0.017 | 0.671 ± 0.048 | 0.418 ± 0.029 | 1.02 ± 0.058 | 1.04 ± 0.032 | 1.06 ± 0.027 | 1.04 ± 0.011 | 0.991 ± 0.02 | 0.978 ± 0.027 | 0.98 ± 0.027 | 0.957 ± 0.027
10 | HU09 BONE | 0.943 ± 0.054 | 0.922 ± 0.041 | 0.931 ± 0.095 | 0.969 ± 0.053 | 1.01 ± 0.092 | 0.968 ± 0.13 | 0.721 ± 0.072 | 0.4 ± 0.013 | 0.958 ± 0.043 | 1.06 ± 0.1 | 0.999 ± 0.096 | 1.09 ± 0.051 | 0.861 ± 0.19 | 0.756 ± 0.067 | 0.481 ± 0.014 | 0.397 ± 0.075
11 | HUO3N1 BONE | 1.03 ± 0.016 | 0.975 ± 0.051 | 0.988 ± 0.027 | 0.964 ± 0.032 | 1.012 ± 0.0098 | 1.06 ± 0.081 | 0.987 ± 0.032 | 0.559 ± 0.011 | 0.993 ± 0.012 | 0.986 ± 0.048 | 1.12 ± 0.047 | 1.08 ± 0.038 | 0.985 ± 0.051 | 1 ± 0.041 | 1.005 ± 0.0097 | 0.936 ± 0.054
12 | JIMT1 BREAST | 0.924 ± 0.0097 | 0.995 ± 0.017 | 1.01 ± 0.037 | 0.986 ± 0.013 | 1.07 ± 0.027 | 1.006 ± 0.01 | 0.686 ± 0.01 | 0.448 ± 0.037 | 0.946 ± 0.041 | 0.955 ± 0.045 | 0.975 ± 0.039 | 0.964 ± 0.07 | 0.931 ± 0.054 | 0.958 ± 0.086 | 0.97 ± 0.045 | 0.924 ± 0.054
13 | JURKAT HAEMATOPOIETIC AND LYMPHOID TISSUE | 1.1 ± 0.026 | 1.105 ± 0.01 | 1.09 ± 0.032 | 1.05 ± 0.02 | 1.04 ± 0.013 | 1.01 ± 0.023 | 0.696 ± 0.037 | 0.039 ± 0.001 | 1.1 ± 0.025 | 1.1 ± 0.027 | 1.07 ± 0.029 | 1.06 ± 0.021 | 1.042 ± 0.009 | 1.02 ± 0.044 | 1.04 ± 0.026 | 0.91 ± 0.057
14 | KPD BONE | 0.943 ± 0.058 | 0.981 ± 0.032 | 1.09 ± 0.068 | 1.02 ± 0.067 | 1.07 ± 0.074 | 0.994 ± 0.083 | 0.907 ± 0.048 | 0.65 ± 0.021 | 1.04 ± 0.097 | 0.981 ± 0.038 | 1.06 ± 0.032 | 1.02 ± 0.026 | 1.03 ± 0.03 | 1.11 ± 0.055 | 0.925 ± 0.033 | 0.841 ± 0.028
15 | LM7 BONE | 1.01 ± 0.1 | 0.999 ± 0.041 | 1.09 ± 0.059 | 1.03 ± 0.08 | 1.11 ± 0.12 | 1.1 ± 0.04 | 0.934 ± 0.12 | 0.8 ± 0.032 | 1.02 ± 0.027 | 0.9597 ± 0.0087 | 1.07 ± 0.03 | 1.01 ± 0.043 | 0.898 ± 0.084 | 0.957 ± 0.076 | 0.79 ± 0.02 | 0.76 ± 0.07
16 | LNCAP PROSTATE | 1.11 ± 0.14 | 0.952 ± 0.22 | 0.842 ± 0.19 | 0.861 ± 0.053 | 0.904 ± 0.15 | 0.784 ± 0.042 | 0.361 ± 0.055 | 0.159 ± 0.016 | 1.12 ± 0.083 | 1.13 ± 0.12 | 1.08 ± 0.011 | 1.01 ± 0.072 | 1.14 ± 0.076 | 1.1 ± 0.15 | 1.16 ± 0.031 | 1.03 ± 0.066
17 | MCF7 BREAST | 0.854 ± 0.026 | 0.839 ± 0.033 | 0.864 ± 0.011 | 0.781 ± 0.026 | 0.977 ± 0.034 | 0.845 ± 0.028 | 0.742 ± 0.0093 | 0.648 ± 0.0092 | 0.969 ± 0.072 | 0.912 ± 0.05 | 0.948 ± 0.023 | 0.943 ± 0.017 | 0.992 ± 0.064 | 0.995 ± 0.073 | 0.942 ± 0.068 | 0.97 ± 0.078
18 | MDAMB134 BREAST | 0.938 ± 0.037 | 0.937 ± 0.17 | 0.987 ± 0.0099 | 0.857 ± 0.011 | 0.935 ± 0.026 | 0.949 ± 0.16 | 0.688 ± 0.04 | 0.781 ± 0.025 | 0.803 ± 0.068 | 1.15 ± 0.12 | 0.865 ± 0.013 | 0.808 ± 0.15 | 0.74 ± 0.12 | 0.72 ± 0.099 | 0.672 ± 0.034 | 0.716 ± 0.13
19 | MDAMB157 BREAST | 0.889 ± 0.089 | 0.896 ± 0.034 | 0.939 ± 0.04 | 0.973 ± 0.069 | 1.01 ± 0.065 | 0.951 ± 0.068 | 0.825 ± 0.024 | 0.321 ± 0.04 | 1.11 ± 0.045 | 0.957 ± 0.047 | 1.09 ± 0.083 | 1.11 ± 0.041 | 1.1 ± 0.066 | 1.07 ± 0.018 | 0.932 ± 0.17 | 0.928 ± 0.063
20 | MDAMB231 BREAST | 0.995 ± 0.015 | 1 ± 0.017 | 0.993 ± 0.03 | 0.983 ± 0.025 | 1.01 ± 0.028 | 0.971 ± 0.042 | 0.805 ± 0.02 | 0.358 ± 0.0067 | 0.935 ± 0.052 | 0.919 ± 0.025 | 0.866 ± 0.036 | 0.839 ± 0.038 | 0.763 ± 0.043 | 0.857 ± 0.017 | 0.923 ± 0.036 | 0.866 ± 0.039
21 | MDAMB361 BREAST | 0.809 ± 0.028 | 0.871 ± 0.097 | 0.796 ± 0.019 | 0.825 ± 0.037 | 0.783 ± 0.096 | 0.843 ± 0.077 | 0.596 ± 0.014 | 0.378 ± 0.015 | 0.632 ± 0.033 | 0.953 ± 0.057 | 0.69 ± 0.11 | 0.743 ± 0.06 | 0.533 ± 0.078 | 0.601 ± 0.059 | 0.619 ± 0.02 | 0.539 ± 0.1

— the supplement of paper PMC6045584
